Assays:
Assay type in all cases: biochemical
Aurora-A(h) = Aurora-A(h) (Homo sapiens, UniProt O14965); experiment: kinase panel activity, Aurora-A(h); conditions: compound at 20 μM; vs reference with no compound
CDK2/cyclinE(h) = CDK2/cyclinE(h) (Homo sapiens, UniProt P24941); experiment: kinase panel activity, CDK2/cyclinE(h); conditions: compound at 20 μM; vs reference with no compound
CDK3/cyclinE(h) = CDK3/cyclinE(h) (Homo sapiens, UniProt Q00526); experiment: kinase panel activity, CDK3/cyclinE(h); conditions: compound at 20 μM; vs reference with no compound
CDK5/p25(h) = CDK5/p25(h) (Homo sapiens, UniProt Q00535); experiment: kinase panel activity, CDK5/p25(h); conditions: compound at 20 μM; vs reference with no compound
CDK6/cyclinD3(h) = CDK6/cyclinD3(h) (Homo sapiens, UniProt Q00534); experiment: kinase panel activity, CDK6/cyclinD3(h); conditions: compound at 20 μM; vs reference with no compound
CHK2(h) = CHK2(h) (Homo sapiens, UniProt O96017); experiment: kinase panel activity, CHK2(h); conditions: compound at 20 μM; vs reference with no compound
cKit(h) = cKit(h) (Homo sapiens, UniProt P10721); experiment: kinase panel activity, cKit(h); conditions: compound at 20 μM; vs reference with no compound
DAPK1(h) = DAPK1(h) (Homo sapiens, UniProt P53355); experiment: kinase panel activity, DAPK1(h); conditions: compound at 20 μM; vs reference with no compound
DAPK2(h) = DAPK2(h) (Homo sapiens, UniProt Q9UIK4); experiment: kinase panel activity, DAPK2(h); conditions: compound at 20 μM; vs reference with no compound
EGFR(h) = EGFR(h) (Homo sapiens, UniProt P00533); experiment: kinase panel activity, EGFR(h); conditions: compound at 20 μM; vs reference with no compound
GSK3β(h) = GSK3β(h) (Homo sapiens, UniProt P49841); experiment: kinase panel activity, GSK3β(h); conditions: compound at 20 μM; vs reference with no compound
IGF-1R(h) = IGF-1R(h) (Homo sapiens, UniProt P08069); experiment: kinase panel activity, IGF-1R(h); conditions: compound at 20 μM; vs reference with no compound
IRR(h) = IRR(h) (Homo sapiens, UniProt P14616); experiment: kinase panel activity, IRR(h); conditions: compound at 20 μM; vs reference with no compound
JNK1α1(h) = JNK1α1(h) (Homo sapiens, UniProt P45983); experiment: kinase panel activity, JNK1α1(h); conditions: compound at 20 μM; vs reference with no compound
JNK3(h) = JNK3(h) (Homo sapiens, UniProt P53779); experiment: kinase panel activity, JNK3(h); conditions: compound at 20 μM; vs reference with no compound
LIMK1(h) = LIMK1(h) (Homo sapiens, UniProt P53667); experiment: kinase panel activity, LIMK1(h); conditions: compound at 20 μM; vs reference with no compound
MAPK2(h) = MAPK2(h) (Homo sapiens, UniProt P28482); experiment: kinase panel activity, MAPK2(h); conditions: compound at 20 μM; vs reference with no compound
Met(h) = Met(h) (Homo sapiens, UniProt P08581); experiment: kinase panel activity, Met(h); conditions: compound at 20 μM; vs reference with no compound
MST1(h) = MST1(h) (Homo sapiens, UniProt Q13043); experiment: kinase panel activity, MST1(h); conditions: compound at 20 μM; vs reference with no compound
MST2(h) = MST2(h) (Homo sapiens, UniProt Q13188); experiment: kinase panel activity, MST2(h); conditions: compound at 20 μM; vs reference with no compound
NEK2(h) = NEK2(h) (Homo sapiens, UniProt P51955); experiment: kinase panel activity, NEK2(h); conditions: compound at 20 μM; vs reference with no compound
NEK3(h) = NEK3(h) (Homo sapiens, UniProt P51956); experiment: kinase panel activity, NEK3(h); conditions: compound at 20 μM; vs reference with no compound
NEK7(h) = NEK7(h) (Homo sapiens, UniProt Q8TDX7); experiment: kinase panel activity, NEK7(h); conditions: compound at 20 μM; vs reference with no compound
NLK(h) = NLK(h) (Homo sapiens, UniProt Q9UBE8); experiment: kinase panel activity, NLK(h); conditions: compound at 20 μM; vs reference with no compound
p70S6K(h) = p70S6K(h) (Homo sapiens, UniProt P23443); experiment: kinase panel activity, p70S6K(h); conditions: compound at 20 μM; vs reference with no compound
PDGFRβ(h) = PDGFRβ(h) (Homo sapiens, UniProt P09619); experiment: kinase panel activity, PDGFRβ(h); conditions: compound at 20 μM; vs reference with no compound
Pim-2(h) = Pim-2(h) (Homo sapiens, UniProt Q9P1W9); experiment: kinase panel activity, Pim-2(h); conditions: compound at 20 μM; vs reference with no compound
PKA(h) = PKA(h) (Homo sapiens, UniProt P17612); experiment: kinase panel activity, PKA(h); conditions: compound at 20 μM; vs reference with no compound
PKBβ(h) = PKBβ(h) (Homo sapiens, UniProt P31751); experiment: kinase panel activity, PKBβ(h)
PKBγ(h) = PKBγ(h) (Homo sapiens, UniProt Q9Y243); experiment: kinase panel activity, PKBγ(h)
PKCα(h) = PKCα(h) (Homo sapiens, UniProt P17252); experiment: kinase panel activity, PKCα(h); conditions: compound at 20 μM; vs reference with no compound
PKG1β(h) = PKG1β(h) (Homo sapiens, UniProt Q13976); experiment: kinase panel activity, PKG1β(h); conditions: compound at 20 μM; vs reference with no compound
Ros(h) = Ros(h) (Homo sapiens, UniProt P08922); experiment: kinase panel activity, Ros(h); conditions: compound at 20 μM; vs reference with no compound
Rsk1(h) = Rsk1(h) (Homo sapiens, UniProt Q15418); experiment: kinase panel activity, Rsk1(h); conditions: compound at 20 μM; vs reference with no compound
SAPK2a(T106M)(h) = SAPK2a(T106M)(h) (Homo sapiens, UniProt Q16539, T106M); experiment: kinase panel activity, SAPK2a(T106M)(h); conditions: compound at 20 μM; vs reference with no compound
SAPK3(h) = SAPK3(h) (Homo sapiens, UniProt P53778); experiment: kinase panel activity, SAPK3(h); conditions: compound at 20 μM; vs reference with no compound
SAPK4(h) = SAPK4(h) (Homo sapiens, UniProt O15264); experiment: kinase panel activity, SAPK4(h); conditions: compound at 20 μM; vs reference with no compound
SGK2(h) = SGK2(h) (Homo sapiens, UniProt Q9HBY8); experiment: kinase panel activity, SGK2(h); conditions: compound at 20 μM; vs reference with no compound
Snk(h) = Snk(h) (Homo sapiens, UniProt Q9NYY3); experiment: kinase panel activity, Snk(h); conditions: compound at 20 μM; vs reference with no compound
TrkA(h) = TrkA(h) (Homo sapiens, UniProt P04629); experiment: kinase panel activity, TrkA(h); conditions: compound at 20 μM; vs reference with no compound
[1] = compound at 20 μM, vs reference with no compound

Chain of NEK7(h) (Q8TDX7 whole entry): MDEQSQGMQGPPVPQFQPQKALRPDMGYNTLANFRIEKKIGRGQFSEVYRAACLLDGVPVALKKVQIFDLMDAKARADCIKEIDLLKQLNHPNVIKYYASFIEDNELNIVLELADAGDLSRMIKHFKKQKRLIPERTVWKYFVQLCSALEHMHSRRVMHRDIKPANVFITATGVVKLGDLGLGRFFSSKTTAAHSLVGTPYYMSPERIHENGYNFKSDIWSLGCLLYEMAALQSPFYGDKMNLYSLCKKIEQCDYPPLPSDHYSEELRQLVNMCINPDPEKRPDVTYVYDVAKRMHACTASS
Chain of NLK(h) (Q9UBE8 whole entry): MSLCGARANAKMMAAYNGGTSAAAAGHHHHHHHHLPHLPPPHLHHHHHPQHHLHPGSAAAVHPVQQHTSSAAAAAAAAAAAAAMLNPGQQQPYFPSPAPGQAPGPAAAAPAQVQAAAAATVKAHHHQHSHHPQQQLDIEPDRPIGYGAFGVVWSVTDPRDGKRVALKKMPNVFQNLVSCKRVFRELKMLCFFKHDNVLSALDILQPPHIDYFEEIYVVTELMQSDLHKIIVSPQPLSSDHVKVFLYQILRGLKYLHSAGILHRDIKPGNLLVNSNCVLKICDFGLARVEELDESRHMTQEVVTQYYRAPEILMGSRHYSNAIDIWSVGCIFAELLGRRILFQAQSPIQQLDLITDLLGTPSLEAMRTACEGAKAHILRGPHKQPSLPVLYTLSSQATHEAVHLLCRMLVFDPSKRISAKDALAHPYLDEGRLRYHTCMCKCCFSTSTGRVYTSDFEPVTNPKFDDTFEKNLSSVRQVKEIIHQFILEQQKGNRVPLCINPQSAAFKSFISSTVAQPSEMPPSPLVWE
Chain of MST1(h) (Q13043 whole entry): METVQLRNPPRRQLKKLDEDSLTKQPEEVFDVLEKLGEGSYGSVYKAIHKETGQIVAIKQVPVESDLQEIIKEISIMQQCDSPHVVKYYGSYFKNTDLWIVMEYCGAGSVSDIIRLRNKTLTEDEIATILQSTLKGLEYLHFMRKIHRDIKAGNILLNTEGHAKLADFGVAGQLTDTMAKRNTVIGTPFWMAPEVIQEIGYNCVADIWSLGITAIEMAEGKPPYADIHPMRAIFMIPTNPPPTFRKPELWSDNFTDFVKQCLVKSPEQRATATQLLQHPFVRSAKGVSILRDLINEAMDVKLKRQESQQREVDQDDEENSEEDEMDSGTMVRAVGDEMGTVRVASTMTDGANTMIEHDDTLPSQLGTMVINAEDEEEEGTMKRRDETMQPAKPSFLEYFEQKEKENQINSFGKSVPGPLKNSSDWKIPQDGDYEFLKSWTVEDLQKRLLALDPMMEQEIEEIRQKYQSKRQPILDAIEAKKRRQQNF
Chain of LIMK1(h) (P53667 whole entry): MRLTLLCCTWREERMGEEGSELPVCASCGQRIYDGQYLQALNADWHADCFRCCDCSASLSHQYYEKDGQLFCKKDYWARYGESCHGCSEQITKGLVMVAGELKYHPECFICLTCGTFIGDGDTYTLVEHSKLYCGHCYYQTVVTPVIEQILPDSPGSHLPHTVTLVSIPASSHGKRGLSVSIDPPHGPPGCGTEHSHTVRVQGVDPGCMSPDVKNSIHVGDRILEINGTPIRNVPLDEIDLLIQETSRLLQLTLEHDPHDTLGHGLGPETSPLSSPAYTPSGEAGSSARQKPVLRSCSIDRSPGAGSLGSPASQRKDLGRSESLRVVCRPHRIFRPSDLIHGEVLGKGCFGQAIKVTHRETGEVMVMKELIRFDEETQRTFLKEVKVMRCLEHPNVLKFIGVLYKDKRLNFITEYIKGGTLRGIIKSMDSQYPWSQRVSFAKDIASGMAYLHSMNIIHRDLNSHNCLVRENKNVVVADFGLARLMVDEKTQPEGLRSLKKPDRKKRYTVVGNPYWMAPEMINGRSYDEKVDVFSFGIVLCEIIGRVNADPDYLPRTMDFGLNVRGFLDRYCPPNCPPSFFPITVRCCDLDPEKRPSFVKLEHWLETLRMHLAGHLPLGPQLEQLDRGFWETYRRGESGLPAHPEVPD
Chain of Met(h) (P08581 25-1390): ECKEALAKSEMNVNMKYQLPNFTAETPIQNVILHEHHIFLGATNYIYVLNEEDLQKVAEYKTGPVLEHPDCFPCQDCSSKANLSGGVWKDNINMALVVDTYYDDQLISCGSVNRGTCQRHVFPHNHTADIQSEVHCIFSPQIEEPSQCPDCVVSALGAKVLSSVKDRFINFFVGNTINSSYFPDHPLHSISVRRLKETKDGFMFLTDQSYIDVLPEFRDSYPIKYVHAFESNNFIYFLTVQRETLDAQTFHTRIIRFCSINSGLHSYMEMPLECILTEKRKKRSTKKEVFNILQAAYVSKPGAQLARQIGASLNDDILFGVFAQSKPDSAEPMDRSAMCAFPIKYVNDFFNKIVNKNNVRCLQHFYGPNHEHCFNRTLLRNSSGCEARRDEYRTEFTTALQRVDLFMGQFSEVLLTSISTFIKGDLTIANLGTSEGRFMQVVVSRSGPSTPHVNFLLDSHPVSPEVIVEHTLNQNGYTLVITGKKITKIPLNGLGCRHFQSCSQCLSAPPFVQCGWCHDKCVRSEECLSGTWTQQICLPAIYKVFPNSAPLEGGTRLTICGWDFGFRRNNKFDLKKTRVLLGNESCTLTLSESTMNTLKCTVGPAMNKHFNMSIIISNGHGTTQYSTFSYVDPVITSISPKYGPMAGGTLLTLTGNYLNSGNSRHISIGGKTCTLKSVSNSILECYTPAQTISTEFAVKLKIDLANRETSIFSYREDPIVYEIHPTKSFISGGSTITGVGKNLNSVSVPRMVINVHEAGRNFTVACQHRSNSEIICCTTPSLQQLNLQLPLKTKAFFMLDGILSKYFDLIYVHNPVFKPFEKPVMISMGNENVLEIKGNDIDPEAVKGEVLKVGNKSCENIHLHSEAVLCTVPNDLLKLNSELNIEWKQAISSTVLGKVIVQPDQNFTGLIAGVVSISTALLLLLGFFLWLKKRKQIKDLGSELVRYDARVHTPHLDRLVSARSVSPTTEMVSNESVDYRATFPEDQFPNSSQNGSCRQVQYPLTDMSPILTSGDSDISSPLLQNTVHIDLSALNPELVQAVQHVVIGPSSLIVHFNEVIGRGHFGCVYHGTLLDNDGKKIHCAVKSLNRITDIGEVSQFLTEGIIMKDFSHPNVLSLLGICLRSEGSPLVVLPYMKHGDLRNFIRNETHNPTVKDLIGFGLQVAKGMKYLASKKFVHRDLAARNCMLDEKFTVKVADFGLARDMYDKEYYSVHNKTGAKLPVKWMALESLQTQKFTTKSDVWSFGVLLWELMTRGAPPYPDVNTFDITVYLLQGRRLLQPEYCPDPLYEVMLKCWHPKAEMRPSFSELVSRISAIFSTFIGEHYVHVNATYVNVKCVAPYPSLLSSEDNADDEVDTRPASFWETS
Chain of DAPK2(h) (Q9UIK4 whole entry): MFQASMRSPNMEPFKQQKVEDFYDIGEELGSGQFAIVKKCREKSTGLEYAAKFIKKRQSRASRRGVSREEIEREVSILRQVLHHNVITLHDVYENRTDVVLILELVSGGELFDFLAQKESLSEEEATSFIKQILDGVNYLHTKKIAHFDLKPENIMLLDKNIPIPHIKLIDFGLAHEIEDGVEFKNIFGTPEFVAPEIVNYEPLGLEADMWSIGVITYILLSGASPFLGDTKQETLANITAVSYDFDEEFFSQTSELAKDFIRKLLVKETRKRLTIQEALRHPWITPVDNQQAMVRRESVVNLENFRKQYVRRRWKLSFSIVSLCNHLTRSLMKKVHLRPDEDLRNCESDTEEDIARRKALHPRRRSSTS
Chain of MAPK2(h) (P28482 whole entry): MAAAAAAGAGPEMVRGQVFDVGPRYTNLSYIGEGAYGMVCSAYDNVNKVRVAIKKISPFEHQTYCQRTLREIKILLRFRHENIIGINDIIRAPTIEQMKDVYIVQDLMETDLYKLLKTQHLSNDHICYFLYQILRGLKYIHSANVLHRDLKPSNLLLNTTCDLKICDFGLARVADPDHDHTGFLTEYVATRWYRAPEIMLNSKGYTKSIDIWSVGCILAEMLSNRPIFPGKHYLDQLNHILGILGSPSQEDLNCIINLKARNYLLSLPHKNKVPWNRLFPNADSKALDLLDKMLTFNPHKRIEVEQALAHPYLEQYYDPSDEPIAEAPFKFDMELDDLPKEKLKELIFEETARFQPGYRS
Chain of SAPK3(h) (P53778 whole entry): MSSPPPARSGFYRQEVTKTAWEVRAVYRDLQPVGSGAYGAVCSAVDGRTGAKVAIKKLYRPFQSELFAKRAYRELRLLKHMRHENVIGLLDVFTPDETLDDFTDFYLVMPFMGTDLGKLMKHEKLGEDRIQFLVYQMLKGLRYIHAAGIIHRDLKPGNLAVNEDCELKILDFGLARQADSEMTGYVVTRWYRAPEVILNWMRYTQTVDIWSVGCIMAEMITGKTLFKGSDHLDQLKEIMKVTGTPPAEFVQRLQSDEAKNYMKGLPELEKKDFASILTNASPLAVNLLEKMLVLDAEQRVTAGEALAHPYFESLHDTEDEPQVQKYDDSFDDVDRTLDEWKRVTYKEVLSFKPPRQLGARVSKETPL
Chain of MST2(h) (Q13188 whole entry): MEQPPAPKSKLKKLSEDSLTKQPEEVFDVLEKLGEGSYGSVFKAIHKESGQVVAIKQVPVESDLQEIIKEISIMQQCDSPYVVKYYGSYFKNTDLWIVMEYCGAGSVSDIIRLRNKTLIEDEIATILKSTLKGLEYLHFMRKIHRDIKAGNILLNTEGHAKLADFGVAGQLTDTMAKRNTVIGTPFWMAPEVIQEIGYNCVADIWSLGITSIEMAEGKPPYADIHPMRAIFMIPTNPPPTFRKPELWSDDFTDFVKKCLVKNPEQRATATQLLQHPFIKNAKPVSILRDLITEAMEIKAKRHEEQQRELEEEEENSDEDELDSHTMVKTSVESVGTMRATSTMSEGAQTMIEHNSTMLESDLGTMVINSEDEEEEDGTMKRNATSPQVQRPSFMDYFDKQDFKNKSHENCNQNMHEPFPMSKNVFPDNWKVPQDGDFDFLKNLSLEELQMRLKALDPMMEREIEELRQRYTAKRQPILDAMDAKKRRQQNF

SMILES | percent activity of Aurora-A(h) (Aurora-A(h)) | percent activity of CDK2/cyclinE(h) (CDK2/cyclinE(h)) | percent activity of CDK3/cyclinE(h) (CDK3/cyclinE(h)) | percent activity of CDK5/p25(h) (CDK5/p25(h)) | percent activity of CDK6/cyclinD3(h) (CDK6/cyclinD3(h)) | percent activity of CHK2(h) (CHK2(h)) | percent activity of cKit(h) (cKit(h)) | percent activity of DAPK1(h) (DAPK1(h)) | percent activity of DAPK2(h) (DAPK2(h)) | percent activity of EGFR(h) (EGFR(h)) | percent activity of GSK3β(h) (GSK3β(h)) | percent activity of IGF-1R(h) (IGF-1R(h)) | percent activity of IRR(h) (IRR(h)) | percent activity of JNK1α1(h) (JNK1α1(h)) | percent activity of JNK3(h) (JNK3(h)) | percent activity of LIMK1(h) (LIMK1(h)) | percent activity of MAPK2(h) (MAPK2(h)) | percent activity of Met(h) (Met(h)) | percent activity of MST1(h) (MST1(h)) | percent activity of MST2(h) (MST2(h)) | other results
O=C(O)[C@H]1O[C@@H](Oc2ccc(/C=C/c3cc(O)cc(O)c3)cc2)[C@H](O)[C@@H](O)[C@@H]1O [Res 4′-Gluc, resveratrol-4-glucuronide] | 33% | 106% | 101% | 91% | 95% | 95% | 100% | 107% | 92% | 106% | 88% | 87% | 93% | 91% | 105% | 91% | 105% | 122% | 106% | 120% | percent activity of NEK2(h) (NEK2(h)): 103%; percent activity of NEK3(h) (NEK3(h)): 105%; percent activity of NEK7(h) (NEK7(h)): 112%; percent activity of NLK(h) (NLK(h)): 99%; percent activity of p70S6K(h) (p70S6K(h)): 54%; percent activity of PDGFRβ(h) (PDGFRβ(h)): 119%; percent activity of Pim-2(h) (Pim-2(h)): 76%; percent activity of PKA(h) (PKA(h)): 105%; percent activity of PKBβ(h) (PKBβ(h); [1]): 94%; percent activity of PKBγ(h) (PKBγ(h); [1]): 101%; percent activity of PKCα(h) (PKCα(h)): 100%; percent activity of PKG1β(h) (PKG1β(h)): 58%; percent activity of Ros(h) (Ros(h)): 105%; percent activity of Rsk1(h) (Rsk1(h)): 104%; percent activity of SAPK2a(T106M)(h) (SAPK2a(T106M)(h)): 109%; percent activity of SAPK3(h) (SAPK3(h)): 106%; percent activity of SAPK4(h) (SAPK4(h)): 104%; percent activity of SGK2(h) (SGK2(h)): 91%; percent activity of Snk(h) (Snk(h)): 87%; percent activity of TrkA(h) (TrkA(h)): 32%
Oc1ccc(C=Cc2cc(O)cc(O)c2)cc1 [resveratrol, 3,5,4′-trihydroxystilbene] | 65% | 80% | 75% | 64% | 55% | 59% | 68% | 71% | 67% | 90% | 92% | 75% | 40% | 89% | 98% | 84% | 101% | 114% | 75% | 73% | percent activity of NEK2(h) (NEK2(h)): 102%; percent activity of NEK3(h) (NEK3(h)): 96%; percent activity of NEK7(h) (NEK7(h)): 116%; percent activity of NLK(h) (NLK(h)): 30%; percent activity of p70S6K(h) (p70S6K(h)): 21%; percent activity of PDGFRβ(h) (PDGFRβ(h)): 119%; percent activity of Pim-2(h) (Pim-2(h)): 14%; percent activity of PKA(h) (PKA(h)): 100%; activity at 20 µM (PKBβ(h); read-out: percent activity of PKBβ(h)): 105%; activity at 20 µM (PKBγ(h); read-out: percent activity of PKBγ(h)): 89%; percent activity of PKCα(h) (PKCα(h)): 114%; percent activity of PKG1β(h) (PKG1β(h)): 56%; percent activity of Ros(h) (Ros(h)): 102%; percent activity of Rsk1(h) (Rsk1(h)): 70%; percent activity of SAPK2a(T106M)(h) (SAPK2a(T106M)(h)): 102%; percent activity of SAPK3(h) (SAPK3(h)): 110%; percent activity of SAPK4(h) (SAPK4(h)): 92%; percent activity of SGK2(h) (SGK2(h)): 70%; percent activity of Snk(h) (Snk(h)): 81%; percent activity of TrkA(h) (TrkA(h)): 31%

Source: patent US20100242139A1, “XENOHORMESIS BASED COMPOSITIONS AND METHODS” (President and Fellows of Harvard College, priority 2006, published 2010)
